In patent publication US20200337310A1, “Herbicidal Combinations” (UPL LTD, priority 2018, published 2020):

Assays:
Assay in all cases: Field trial, weed control burn down symptoms at 5 DAT
Conditions in all cases: field trial India, glufosinate ammonium 400, carfentrazone 10, imazethapyr 100 gm/ha
Trianthema monogyna = test system: Trianthema monogyna
Cyprus spp = test system: Cyprus spp
Parthenium hysterophorus = test system: Parthenium hysterophorus
Dinebra retroflexa = test system: Dinebra retroflexa

Row | SMILES | % Weed control Burn Down Symptoms Generation, Trianthema monogyna, Actual (Trianthema monogyna) [%] | % Weed control Burn Down Symptoms Generation, Cyprus spp, Actual (Cyprus spp) [%] | % Weed control Burn Down Symptoms Generation, Parthenium hysterophorus, Actual (Parthenium hysterophorus) [%] | % Weed control Burn Down Symptoms Generation, Dinebra retroflexa, Actual (Dinebra retroflexa) [%]
1 | CCOC(=O)C(Cl)Cc1cc(-n2nc(C)n(C(F)F)c2=O)c(F)cc1Cl (racemic) [Carfentrazone, ethyl (RS)-2-chloro-3-{2-chloro-5-[4-(difluoromethyl)-4,5-dihydro-3-methyl-5-oxo-1H-1,2,4-triazol-1-yl]-4-fluorophenyl}propionate] | 70 | 60 | 5 | 0
2 | CP(=O)(O)CCC(N)C(=O)O (racemic) [Glufosinate ammonium, (2RS)-2-amino-4-[hydroxy(methyl)phosphinoyl]butyric acid] | 25 | 5 | 30 | 15
3 | CCc1cnc(C2=NC(C)(C(C)C)C(=O)N2)c(C(=O)O)c1 (racemic) [Imazethapyr, 5-ethyl-2-[(RS)-4-isopropyl-4-methyl-5-oxo-2-imidazolin-2-yl]nicotinic acid] | 10 | 00 | 5 | 0
